Source: patent US20190175598A1, “COMBINATION THERAPIES FOR THE TREATMENT OF HEPATOCELLULAR CARCINOMA” (Eisai R&D Management Co., Ltd., priority 2016, published 2019)

Experiments:
[1] = test system: human primary hepatocellular carcinoma model LIX066; experiment: LIX066 patient derived xenograft model of hepatocellular carcinoma, antitumor activity; format: in vivo, mice; settings: Example 3, oral daily 17 days
Description: The human primary hepatocellular carcinoma model LIX066 model from ChemPartner (shangpharma.com) were implanted into the female severe combined immunodeficiency (SCID) mice. When the tumors developed in mice, the mice were sacrificed and the tumors were resected and implanted into female nude mice for tumor preservation, histopathology diagnosis and in vivo efficacy study. Solid tumor tissues were depleted of necrotic components, cut into 10-15 mg pieces, and mixed. Three to five pieces were mixed with […] Matrigel and implanted into a flank of 6-8-week-old female NU/NU immune compromised mice weighing 18-20 g nude mice. 30 mice with average tumor volume of 160 mm^3 selected and randomized into 6 groups of 5 mice each. All of the primary human tumors utilized in this study had undergone 3-5 passages in vivo and the tumor histology of each was maintained over the serial transplantation process. Per os (PO) treatment with Compound 1 (300 and 500 mg/kg) alone or in combination with vehicle (control) or palbociclib (100 mg/kg) administered once daily (QD) continued for 17 days. The administration volume (0.1 mL/10 g body weight) was calculated from the individual mouse body weight (BW) before administration. Body weights were measured daily and tumor measurements were performed twice weekly.
(§1) where Day X is any day of measurement
(§2) The anti-tumor effects of the treatment, Partial (PR) and complete regression (CR), stable (SD) and progressive (PD) disease were defined by the Xenograft Model Response Criteria (see below). Mice with >20% body weight loss compared to their Day 1 body weight or bearing tumors with the longest diameter […] were immediately euthanized to prevent any pain or suffering in the animal as according to IACUC guidelines.
Data are expressed as the mean±SEM for Tumor Volume (TV). The differences in TV between groups were analyzed by two way ANOVA followed by Sidak post hoc test. Statistical analyses were performed using the GraphPad Prism version 6 (GraphPad Software, La Jolla, Calif.). […]

[2] = test system: human hepatocellular cancer cell line JHH7 xenograft; experiment: JHH7 xenograft model of hepatocellular carcinoma, antitumor activity; format: in vivo, mice; settings: PO QD 8 days
Description: The cell line used, JHH7, was sourced from Japanese Collection of Research Bioresources Cell Bank (JCRB), verified free of mycobacterium contamination and verified for identity by short tandem repeat analysis of 9 markers.
JHH7 cells were maintained in William's E Medium (Thermo Fisher Scientific, 12551-032) with 10% fetal bovine serum. Cells were maintained prior to and during experiments at 37° C. 5% CO2, and at 95% relative humidity. Cell passage number was limited to between 12 and 20.
The human hepatocellular cancer cell line JHH7 was cultured in William's E Medium (Thermo Fisher Scientific, 12551-032) containing 10% fetal bovine serum at 37° C. in a 5% CO2 atmosphere and kept in exponential growth phase. For harvesting, the cells were washed with phosphate buffered saline, incubated with 0.25% trypsin-EDTA, and suspended in a 1:1 mixture of William's E Medium and Matrigel (Corning) at a final concentration of 5×10^7 cells/mL. To generate xenografts, 0.1-mL of the inoculum was injected subcutaneously into the right flank region of NU/NU immuno compromised 6-8 week old female mice, giving a final concentration of 5×10^6 cells/mouse. When the mean tumor volume (TV) reached approximately 170 mm^3 (10 days after implantation), 144 mice were selected based on their TVs, and were sorted into 18 treatment groups with 8 animals per group. Per os (PO) treatment with Compound 1 (300 and 500 mg/kg) alone or in combination with vehicle (control) or palbociclib (50 and 100 mg/kg) or ribociclib (75 and 150 mg/kg) administered once daily (QD) continued for 8 days. The administration volume (0.1 mL/10 g body weight) was calculated from the individual mouse body weight (BW) before administration. Body weights were measured daily and tumor measurements were performed twice weekly.
as §1, §2
Data are expressed as the mean±SEM for Tumor Volume (TV). The differences in TV between groups were analyzed by two way ANOVA followed by Sidak post hoc test. Statistical analyses were performed using the GraphPad Prism version 6 (GraphPad Software, La Jolla, Calif.).
Progressive disease (PD): 3 consecutive measurements >120% of starting volume or 3 consecutive increasing measurements from best response, Stable disease (SD): 3 consecutive measurements >50% and <120% of starting volume, Partial regression (PR): 3 consecutive measurements <50% of starting volume, Complete regression (CR): 3 consecutive measurements <30 mm^3.

CC(=O)c1c(C)c2cnc(Nc3ccc(N4CCNCC4)cn3)nc2n(C2CCCC2)c1=O [Palbociclib, 6-acetyl-8-cyclopentyl-5-methyl-2-{[5-(piperazin-1-yl)pyridin-2-yl]amino}pyrido[2,3-d]pyrimidin-7(8H)-one, reference compound]
Tumor Growth Inhibition % (TGI) ([1]; palbociclib 100 mg/kg single agent, vs vehicle controls (P≤0.001)): 62%
Tumor Growth Inhibition % (TGI) ([2]; Example 2, palbociclib 50 mg/kg single agent, vs vehicle controls (not significant)): 11%
Tumor Growth Inhibition % (TGI) ([2]; Example 2, palbociclib 100 mg/kg single agent, vs vehicle controls (P≤0.05)): 26%

CN(C)C(=O)c1cc2cnc(Nc3ccc(N4CCNCC4)cn3)nc2n1C1CCCC1 [Ribociclib, 7-Cyclopentyl-2-(5-piperazin-1-yl-pyridin-2-ylamino)-7H-pyrrolo[2,3-d]pyrimidine-6-carboxylic acid dimethylamide, reference compound]
Tumor Growth Inhibition % (TGI) ([2]; Example 1, ribociclib 75 mg/kg single agent, vs vehicle controls (not significant)): 13%
Tumor Growth Inhibition % (TGI) ([2]; Example 1, ribociclib 150 mg/kg single agent, vs vehicle controls (P≤0.0001)): 23%

C=CC(=O)Nc1cc(N2CCN(CC)CC2)ccc1Nc1cc(N(C)C(=O)Nc2c(Cl)c(OC)cc(OC)c2Cl)ncn1 [Compound 1, N-(2-((6-(3-(2,6-dichloro-3,5-dimethoxyphenyl)-1-methylureido)pyrimidin-4-yl)amino)-5-(4-ethylpiperazin-1-yl)phenyl)acrylamide]
Tumor Growth Inhibition % (TGI) ([1]; Compound 1 300 mg/kg single agent, vs vehicle controls (P≤0.0001)): 59%
Tumor Growth Inhibition % (TGI) ([1]; Compound 1 500 mg/kg single agent, vs vehicle controls (P≤0.0001)): 70%
Tumor Growth Inhibition % (TGI) ([2]; Example 1, Compound 1 300 mg/kg single agent, vs vehicle controls): 14%
Tumor Growth Inhibition % (TGI) ([2]; Example 1, Compound 1 500 mg/kg single agent, vs vehicle controls): 35%
Tumor Growth Inhibition % (TGI) ([2]; Example 2, Compound 1 300 mg/kg single agent, vs vehicle controls (P≤0.01)): 12%
Tumor Growth Inhibition % (TGI) ([2]; Example 2, Compound 1 500 mg/kg single agent, vs vehicle controls (P≤0.0001)): 32%
